In patent EP4702982A1, “VITALITY IMPROVING AGENT, COMPOSITION FOR IMPROVING VITALITY, AND FOOD COMPOSITION FOR IMPROVING VITALITY” (Med R&D Co. Ltd, priority 2023, dated 2024):

How the values were obtained:
[1] = system: ALPL gene (alkaline phosphatase); assay: Quantitative real-time PCR of hair growth-related gene ALPL in HFDPCs; type: cell-based, human; set-up: key to ALPL: -: Expression was suppressed.; ±: No significant difference was observed in the expression enhancing effects at at least some of the concentrations.; +: A significant difference with p < 0.05 or more was observed in the expression enhancing effects at all concentrations.; ++: A significant difference with p < 0.01 or more was observed in the expression enhancing effects at all concentrations; details: for ALPL: extracts at a volume of 1/6,000 or 1/10,000 (Production Examples 1 and 6 at non-cytotoxic concentration), D-pinitol and shikimic acid at 1 µM and 10 µM; for expression enhancing effects for ALPL (in words): summary of Table 5
Method: (§1) The pine needle extract of Production Example 1 was added to the culture medium for HFDPCs, and the expression of hair growth markers was measured by quantitative real-time PCR. As the hair growth markers, CTNNB1 gene (β-catenin), ALPL gene (alkaline phosphatase), and FGF1 gene (fiblobrast growth factor 1) were examined. It is known that β-catenin induces anagen of the hair cycle and promotes the proliferation of keratinocytes. ALPL is a representative hair growth marker in the hair papilla cells. FGF1 is a marker for morphogenesis of hair follicles. HFDPCs were seeded in a 6-well plate at a concentration of 5 × 10^4 cells/well and incubated at 37°C for 24 hours. Subsequently, the culture medium was removed and replaced with a culture medium containing a pine needle extract at a volume of 1/4,000 and 1/2,000. Furthermore, for a comparison, cells treated with a culture medium to which minoxidil (0.1 µM), an existing therapeutic agent for hair loss, was added, were also prepared. Subsequently, after 48 hours, the cells were washed with cold PBS, and total RNA was extracted using an ISOGEN kit (Nippon Gene Co., Ltd.). Subsequently, the total RNA was quantified using a NanoDrop 2000 spectrophotometer (Thermo Fisher Scientific, Inc.), and quantitative real-time PCR analysis was performed. […] Subsequently, real-time PCR was carried out using a 7500 Fast Real-Time PCR system (Software 1.3.1, Thermo Fisher Scientific, Inc.) and TaqMan probes specific for CTNNB1, ALPL, and FGF1. GAPDH was used as an endogenous control, and the 2^- △△Ct method was applied, to calculate the relative amount of mRNA in comparison with GAPDH. The effect of the pine needle extracts of Production Examples 3 to 6 on the hair growth-related genes was examined by the same method as that used in Experimental Example 6. Furthermore, the same examination was carried out for D-pinitol and shikimic acid. The pine needle extracts of Production Examples 3 to 6 were each added to the culture medium for cells at a volume of 1/6,000 or a volume of 1/10,000. The pine needle extracts of Production Examples 1 and 6 were each added to the culture medium for cells at a concentration at which cytotoxicity was not observed. D-pinitol was added to the culture medium for cells at 1 µM and 10 µM. Shikimic acid was added to the culture medium for cells at 1 µM and 10 µM. In the following Table 5, "CTNNB1", "ALPL", and "FGF1" indicate the evaluation results for the expression enhancing effects of each hair growth-related gene. […]

[2] = system: human primary hair papilla cells (HFDPC); assay: Cytotoxicity (MTT cell viability) in hair papilla cells; type: cell-based; set-up: key: -: No cytotoxicity was observed.; ±: The cell viability was reduced by 40% or more at a volume of 1/100.; +: The cell viability was reduced by 10% or more at a volume of 1/10,000.; ++: The cell viability was reduced by 40% or more at a volume of 1/10,000; details: same method as Experimental Example 4
Method: The cytotoxicity of the pine needle extract of Production Example 1 was examined. Regarding the cells, human primary hair papilla cells (HFDPC, purchased from PromoCell GmbH), which are mesenchymal cells isolated from the papilla of normal human scalp hair follicles, were used. HFDPCs were seeded on a collagen-coated 96-well plate at a concentration of 5 × 10^4 cells/well and incubated at 37°C in a humidified atmosphere of 5% CO2. As a culture medium, a hair papilla cell growth culture medium to which growth factors (bovine fetal serum, insulin, transferrin, triiodothyronine, bovine pituitary extract, and a cyproterone solution) had been added was used. After 24 hours, the culture medium for the cells was replaced with a culture medium to which a pine needle extract was added at a volume of 0 (control), 1/6,000, 1/5,000, 1/4,000, 1/3,000, 1/2,000, 1/1,000, 1/500, 1/250, or 1/100, and the cells were incubated for 48 hours. […] Specifically, an MTT reagent (5 mg/mL) was added to the cells, the cells were incubated for 8 hours, subsequently 10% sodium dodecyl sulfate (SDS) was added thereto, and the cells were incubated overnight. Thereafter, the absorbance at 570 nm was measured using a microplate reader, and the cell viability was quantified as a proportion (%) of the absorbance with respect to the absorbance of untreated cells. […]

[3] = system: FGF1 gene (fiblobrast growth factor 1); assay: Quantitative real-time PCR of hair growth-related gene FGF1 in HFDPCs; type: cell-based, human; set-up: key to FGF1: -: Expression was suppressed.; ±: No significant difference was observed in the expression enhancing effects at at least some of the concentrations.; +: A significant difference with p < 0.05 or more was observed in the expression enhancing effects at all concentrations.; ++: A significant difference with p < 0.01 or more was observed in the expression enhancing effects at all concentrations; details: for FGF1: extracts at a volume of 1/6,000 or 1/10,000 (Production Examples 1 and 6 at non-cytotoxic concentration), D-pinitol and shikimic acid at 1 µM and 10 µM; for expression enhancing effects for FGF1 (in words): summary of Table 5
Method: as §1

CTNNB1 gene (β-catenin) = assay: Quantitative real-time PCR of hair growth-related gene CTNNB1 in HFDPCs; type: cell-based, human; set-up: key to CTNNB1: -: Expression was suppressed.; ±: No significant difference was observed in the expression enhancing effects at at least some of the concentrations.; +: A significant difference with p < 0.05 or more was observed in the expression enhancing effects at all concentrations.; ++: A significant difference with p < 0.01 or more was observed in the expression enhancing effects at all concentrations; details: for CTNNB1: extracts at a volume of 1/6,000 or 1/10,000 (Production Examples 1 and 6 at non-cytotoxic concentration), D-pinitol and shikimic acid at 1 µM and 10 µM; for expression enhancing effects for CTNNB1 (in words): summary of Table 5
Method: as §1

[4] = Body weight and food intake during 7-day oral administration; type: in vivo, ICR mouse; details: 20 mg/kg bupropion oral, daily for 7 days
Method: In the following Table 6, "LPS" indicates lipopolysaccharide. Furthermore, bupropion administered to a positive control group is an antidepressant. The mice in each group were kept for 7 days to be acclimatized, and then a pine needle extract was orally administered daily for 7 days. Thereafter, neuroinflammation was induced in the brain by a single intraperitoneal administration of LPS, and depression was developed. A tail suspension test was performed the day after the administration of LPS. In the tail suspension test, a SMART 3.0 video image behavior analysis device (Panlab S.L.U.) was used. The brain was removed the day after the tail suspension test, and the hippocampus was further collected and used in the experiment that will be described later.

CO[C@H]1[C@H](O)[C@@H](O)[C@@H](O)[C@H](O)[C@@H]1O [D-pinitol]
ALPL [1]: -
expression enhancing effects for ALPL (in words) [1]: did not exhibit expression enhancing effects
Cytotoxicity [2]: -
FGF1 [3]: ++
expression enhancing effects for FGF1 (in words) [3]: exhibited expression enhancing effects
CTNNB1 (CTNNB1 gene (β-catenin)): ++
expression enhancing effects for CTNNB1 (in words) (CTNNB1 gene (β-catenin)): exhibited expression enhancing effects

O=C(O)C1=C[C@@H](O)[C@@H](O)[C@H](O)C1 [Shikimic acid]
ALPL [1]: ±
expression enhancing effects for ALPL (in words) [1]: did not exhibit expression enhancing effects
Cytotoxicity [2]: -
FGF1 [3]: ++
expression enhancing effects for FGF1 (in words) [3]: exhibited expression enhancing effects
CTNNB1 (CTNNB1 gene (β-catenin)): +
expression enhancing effects for CTNNB1 (in words) (CTNNB1 gene (β-catenin)): exhibited expression enhancing effects

CC(NC(C)(C)C)C(=O)c1cccc(Cl)c1 (stereo not drawn) [bupropion]
Final body weight [4]: 35.6 ± 0.7 g
Increase in body weight (g / 7 days) [4]: 2.9 ± 0.4 g / 7 days
Total amount of food intake (g / 7 days) [4]: 25.0 ± 1.2 g / 7 days
Initial body weight ([4]; baseline): 32.7 ± 0.8 g
